This note sets out measurements from US20120329794A1, “Ab1 KINASE INHIBITORS” (Kyowa Hakko Kirin Co., Ltd., priority 2006, published 2012).

The target in this assay is T1, Abl(T315I) protein (Homo sapiens, UniProt P00519, T315I).
T1 construct: purchased Upstate 14-522
Briefly: Abl T315I inhibitory activity (radiometric kinase assay). The assay is classed as biochemical. To be noted: 1 μmol/L test compound. On the procedure: In order to measure Abl T315I inhibitory activity, the following method was used: A reaction solution was prepared so that the final concentrations in a volume of 25 μL were 5 to 10 mU of Abl(T315I) protein (Upstate, catalog No. 14-522), 8 mmol/L of 3-morpholinopropane sulfonic acid (pH 7.0), 0.2 mmol/L of, EDTA, 50 μmol/L of EAIYAAPFAKKK, 10 mmol/L of Mg acetate, [γ-^33P-ATP] (500 cpm/pmol), 0.1% of dimethyl sulfoxide (DMSO), and 1 μmol/L of test compound, followed by enzyme reaction at room temperature for 40 minutes. The reaction was terminated with 5 μL of a 3% aqueous phosphoric acid solution, and the reaction solution was added to a P30 filter mat. Then, the filter was washed with a 75 mmol/L aqueous phosphoric acid solution three times and 100% methanol once, and then dried. Then, the radioactivity of the filter was measured.
Assuming that a measured value of an enzyme to which 0.1% of DMSO was added was 100%, and a measured value of a sample to which an enzyme was not added was 0%, the relative activity (%) of radioactivity of a sample to which the test compound was added was calculated, and a value obtained by subtracting the calculated value from 100 was considered as Abl T315I inhibitory activity (%) of the test compound.

Turning to `Nc1cc(/C=C/c2n[nH]c3ccccc23)ccc1OCCN1CCOCC1` [Compound 4], the inhibition at 1 µM is ≥ 90%. Then `CC(=O)N1CCN(C(=O)c2ccc(/C=C/c3n[nH]c4ccccc34)cc2)CC1` [Compound 6], with ≥ 90%; and `COCC(=O)N1CCN(C(=O)c2ccc(/C=C/c3n[nH]c4ccccc34)cc2)CC1` [Compound 7], with ≥ 90%.

Usually inhibition stands for the drop in the measured response relative to a control, in per cent.
